Source: ChEMBL document CHEMBL1146415, “3-Epi-aplykurodinone B, a new degraded sterol from Aplysia fasciata” (1997)

Columns and labels:
Assay type in all cases: functional
Details in all cases: read-out: ED50 (the source's name)
[1] = tested on: HT-29; assay: Cytotoxicity against human HT-29 cells
[2] = tested on: SK-MEL-28; assay: Cytotoxicity against human SK-MEL-28 cells
[3] = tested on: P388; assay: Cytotoxicity against mouse P388 cells
[4] = tested on: A549; assay: Cytotoxicity against human A549 cells

Measured: EC50

CC(C)=CCC[C@@H](C)[C@H]1C[C@@H]2OC(=O)C[C@@H]3C(=O)CC[C@@]1(C)[C@H]23 [3-EPI-APLYKURODINONE B]
2.5 µg/mL: all assays above
